Reference: PMC5374982 (Biochemistry, 2016)
pKd: −log10 of the molar value. Like-named read-outs stand apart in the source and are kept apart here.

Legend:
Assay in all cases: 1H–[…] HSQC NMR chemical shift titration
Format in all cases: binding
[1] = target: xylanase B2 (XlnB2) (Streptomyces lividans, UniProt P26515)
[2] = target: T1, XlnB2-E87A (Streptomyces lividans, UniProt P26515, E128A)
[3] = target: T1, XlnB2-E87A; remark: listed apart in the source

Question: With `OC1OC[C@@H](O[C@@H]2OC[C@@H](O)[C@H](O)[C@H]2O)[C@H](O)[C@H]1O` (stereo partly drawn) [X2, xylobiose] as the compound, how does the pKd [1] read?
Answer: 2.15

Question: What about the pKd [2] of the same compound?
Answer: 2.06

Question: `OC1OC[C@@H](O[C@@H]2OC[C@@H](O[C@@H]3OC[C@@H](O[C@@H]4OC[C@@H](O[C@@H]5OC[C@@H](O)[C@H](O)[C@H]5O)[C@H](O)[C@H]4O)[C@H](O)[C@H]3O)[C@H](O)[C@H]2O)[C@H](O)[C@H]1O` (stereo partly drawn) [X5, xylopentaose] was tested. Which pKd [3] did it give?
Answer: 2.10
